Reference: PubChem BioAssay AID192 (DTP/NCI, 2004)
Values joined by “and” are separate entries in the source; they are usually repeats but may differ in a detail not shown here. Equal entries are not always repeated. Inconclusive results and toxic doses are left out. The calls were made as follows: active = survival T/C of 150% or more; inactive = T/C below 125% in these data.

System: BDF1 mice, B16 melanoma ip, median survival T/C
Assay: NCI In Vivo Anticancer Drug Screen. Data for tumor model B16 Melanoma (intraperitoneal) in B6D2F1 (BDF1) mice
Details: endpoint: median survival time, higher = longer survival
How it was run: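 Tumor-bearing mice received test compound or vehicle. Survival or tumor size was then measured in both groups. The treated-group figure was divided by the control-group figure.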

[1] = dose: 50.0 mg/kg/injection, schedule: Q01DX009 (ip), vehicle: Klucel (hydroxypropylcellulose) (HPC)
[2] = dose: 100.0 mg/kg/injection, schedule: Q01DX009 (ip), vehicle: Klucel (hydroxypropylcellulose) (HPC)
[3] = dose: 200.0 mg/kg/injection, schedule: Q01DX009 (ip), vehicle: Klucel (hydroxypropylcellulose) (HPC)
[4] = dose: 3.13 mg/kg/injection, schedule: Q01DX009 (ip), vehicle: saline with Tween-80
[5] = dose: 6.25 mg/kg/injection, schedule: Q01DX009 (ip), vehicle: saline with Tween-80
[6] = dose: 12.5 mg/kg/injection, schedule: Q01DX009 (ip), vehicle: saline with Tween-80
[7] = dose: 25.0 mg/kg/injection, schedule: Q01DX009 (ip), vehicle: saline with Tween-80
[8] = dose: 50.0 mg/kg/injection, schedule: Q01DX009 (ip), vehicle: saline with Tween-80
[9] = dose: 100.0 mg/kg/injection, schedule: Q01DX009 (ip), vehicle: saline with Tween-80
[10] = dose: 25.0 mg/kg/injection, schedule: Q01DX009 (ip), vehicle: Klucel (hydroxypropylcellulose) (HPC)
[11] = dose: 100.0 mg/kg/injection, schedule: Q01DX009 (ip), vehicle: saline
[12] = dose: 3.12 mg/kg/injection, schedule: Q01DX009 (ip), vehicle: saline
[13] = dose: 12.5 mg/kg/injection, schedule: Q01DX009 (ip), vehicle: saline
[14] = dose: 25.0 mg/kg/injection, schedule: Q01DX009 (ip), vehicle: saline
[15] = dose: 50.0 mg/kg/injection, schedule: Q01DX009 (ip), vehicle: saline

Measured: T/C

CCOC(=O)C1CC(c2ccccc2)=NN1c1ccccc1 (centres undefined)
inactive: [1] 97 % of control | [2] 104 % of control | [3] 100 % of control | dose: 400.0 mg/kg/injection, schedule: Q01DX009 (ip), vehicle: Klucel (hydroxypropylcellulose) (HPC) 97 % of control

COc1ccc(-n2c(=S)[nH]c3ccccc3c2=O)cc1
inactive: [2] 97 % of control | [3] 88 % of control

C(=NCCN1CCOCC1)=NC1CCCCC1
inactive: [4] 108 % of control | [5] 110 % of control | [6] 114 % of control

CCCCCCCCCCCCCC(C)NCc1ccccc1 (centres undefined)
inactive: [4] 100 % of control | [5] 100 % of control | [6] 100 % of control

CSCCC(C#N)(CCN(C)C)c1ccccc1 (centres undefined)
inactive: [7] 113 % of control | [8] 107 % of control | [9] 111 % of control

COc1ccc2c(c1[N+](=O)[O-])CC[C@@H]1[C@@H]2CC[C@]2(C)C(=O)CC[C@@H]12
inactive: [8] 87 % of control | [9] 89 % of control

Nc1n[nH]c(=O)[nH]1
inactive: [10] 107 % of control | [1] 98 % of control | [2] 109 % of control | [3] 107 % of control

Cc1ccc(Nc2c3ccccc3nc3ccccc23)cc1
inactive: dose: 18.0 mg/kg/injection, schedule: Q01DX009 (ip), vehicle: saline with Tween-80 123 % of control | dose: 18.0 mg/kg/injection, schedule: Q04DX003 (ip), vehicle: saline with Tween-80 105 % of control | dose: 37.5 mg/kg/injection, schedule: Q04DX003 (ip), vehicle: saline with Tween-80 110 % of control | dose: 75.0 mg/kg/injection, schedule: Q04DX003 (ip), vehicle: saline with Tween-80 105 % of control

O=[N+]([O-])c1cccc(P(=O)(c2cccc([N+](=O)[O-])c2)c2cccc([N+](=O)[O-])c2)c1
inactive: [11] 105 % of control | dose: 100.0 mg/kg/injection, schedule: Q04DX003 (ip), vehicle: saline 94 % of control | dose: 200.0 mg/kg/injection, schedule: Q01DX009 (ip), vehicle: saline 100 % of control | dose: 200.0 mg/kg/injection, schedule: Q04DX003 (ip), vehicle: saline 100 % of control | dose: 400.0 mg/kg/injection, schedule: Q01DX009 (ip), vehicle: saline 107 % of control | dose: 400.0 mg/kg/injection, schedule: Q04DX003 (ip), vehicle: saline 100 % of control

NNCCc1ccccc1
inactive: [12] 94 % of control | [13] 117 % of control | [14] 100 % of control | [15] 97 % of control

C=C(NC(=O)C(=C)NC(=O)c1csc(C2=NC3c4csc(n4)C4NC(=O)c5csc(n5)C(C(C)(O)C(C)O)NC(=O)C5CSC(=N5)/C(=C/C)NC(=O)C(C(C)O)NC(=O)c5csc(n5)C3(CC2)NC(=O)C(C)NC(=O)C(=C)NC(=O)C(=C)NC(=O)C(C(C)C)NC2C=Cc3c(C(C)O)cc(nc3C2O)C(=O)OC4C)n1)C(N)=O (centres undefined)
inactive: [12] 114 % of control | dose: 6.25 mg/kg/injection, schedule: Q01DX009 (ip), vehicle: saline 104 % of control and 117 % of control | [13] 109 % of control and 114 % of control | [14] 110 % of control and 120 % of control | [15] 119 % of control and 120 % of control | [11] 123 % of control

Cc1cc(N(CCCl)CCCl)ccc1C=Nc1cccnc1
inactive: [8] 119 % of control | [9] 124 % of control

Cc1ccc(S(=O)(=O)Nc2c([N+](=O)[O-])cc([N+](=O)[O-])c3ccccc23)cc1
inactive: [5] 107 % of control | [6] 100 % of control | [7] 112 % of control

Cc1ccc(NC(=O)Nc2ccc(Cl)c(Cl)c2)cc1Cl
inactive: [10] 96 % of control | [1] 105 % of control

COc1cc(C)c2c(=O)c3c(oc2c1)C(=O)c1c(O)c(OC)cc(O)c1C3=O
inactive: [7] 105 % of control | [8] 101 % of control | [9] 96 % of control | dose: 200.0 mg/kg/injection, schedule: Q01DX009 (ip), vehicle: saline with Tween-80 100 % of control

NC(=O)CC(NC(=O)CCl)C(=O)O (centres undefined)
inactive: [8] 98 % of control | [9] 99 % of control
